{
  "source": "patent EP4725508A1",
  "about": "“LIGAND-DRUG CONJUGATE HAVING FREE PAYLOAD RECOVERY UNIT” (RemeGen Co., Ltd., priority 2024, dated 2025)",
  "key": {"HCC1954": {"tested_on": "HCC1954", "assay": "Cell killing activity", "assay_type": "cell-based"}, "chimeric antibody No. 1": {"target": "chimeric antibody No. 1", "assay": "Biacore determination, binding affinity with free MMAE", "set-up": "species or system mouse", "details": "antibody immobilized with ProA probe; free MMAE 50-1.85 nM", "procedure": "(§1) Antibody immobilization: 20 µg/mL of antibody was immobilized onto the chip surface using a ProA probe; Binding: Antigen MMAE concentrations were 50, 16.7, 5.5, 1.85, and 0 nM. The flow rate was set at 30 µL/min, and the contact time was 600 s; Dissociation: The chip was washed with HEPES buffer for 300 s. Regeneration: Regeneration was performed with 10 mM Glycine-HCl."}, "chimeric antibody No. 69": {"target": "chimeric antibody No. 69", "assay": "Biacore determination, binding affinity with free MMAE", "set-up": "species or system mouse", "details": "antibody immobilized with ProA probe; free MMAE 50-1.85 nM", "procedure": "as §1"}, "chimeric antibody No. 93": {"target": "chimeric antibody No. 93", "assay": "Biacore determination, binding affinity with free MMAE", "set-up": "species or system mouse", "details": "antibody immobilized with ProA probe; free MMAE 50-1.85 nM", "procedure": "as §1"}, "chimeric antibody No. 44": {"target": "chimeric antibody No. 44", "assay": "Biacore determination, binding affinity with free MMAE", "set-up": "species or system mouse", "details": "antibody immobilized with ProA probe; free MMAE 50-1.85 nM", "procedure": "as §1"}, "[1]": {"target": "chimeric antibody No. 62 (VH SEQ ID NO: 1, VL SEQ ID NO: 5)", "assay": "Biacore determination, binding affinity with free MMAE", "set-up": "species or system mouse", "details": "antibody immobilized with ProA probe; free MMAE 50-1.85 nM", "procedure": "as §1"}, "chimeric antibody No. 92": {"target": "chimeric antibody No. 92", "assay": "Biacore determination, binding affinity with free MMAE", "set-up": "species or system mouse", "details": "antibody immobilized with ProA probe; free MMAE 50-1.85 nM", "procedure": "as §1"}, "chimeric antibody No. 89": {"target": "chimeric antibody No. 89", "assay": "Biacore determination, binding affinity with free MMAE", "set-up": "species or system mouse", "details": "antibody immobilized with ProA probe; free MMAE 50-1.85 nM", "procedure": "as §1"}, "chimeric antibody No. 74": {"target": "chimeric antibody No. 74", "assay": "Biacore determination, binding affinity with free MMAE", "set-up": "species or system mouse", "details": "antibody immobilized with ProA probe; free MMAE 50-1.85 nM", "procedure": "as §1"}, "OVCAR3": {"tested_on": "OVCAR3", "assay": "Cell killing activity", "assay_type": "cell-based"}, "[2]": {"tested_on": "humanized antibody ABC3320 (Heavy chain: SEQ ID NO: 163; Light chain: SEQ ID NO: 164)", "assay": "Blocking experiment (ELISA, OVA-MMAF coated)", "assay_type": "binding", "details": "MMAE+ antibody; OVA-MMAF coated 200 ng/mL; antibody 100 ng/mL; control in Tables 6, 8, 10, 12", "procedure": "(§2) Blocking Experiment: OVA-MMAF was coated onto ELISA plates at a concentration of 200 ng/mL and incubated at 37°C for 1 h. The plates were blocked with 5% skim milk and incubated at 37°C for 2 h. The antibody was diluted to a final concentration of 100 ng/mL. MMAE and MMAE-Linker were diluted at concentrations of 600, 200, 66.67, 22.22, 7.41, 2.47, 0.82, 0.27, 0.09, 0.03, and 0.01 nM. 50 µL MMAE + 50 µL chimeric antibody and 50 µL MMAE-Linker + 50 µL chimeric antibody were added respectively to the ELISA plates. The total volume per well was 100 µL. The plates were incubated at 37°C for 1 h. Goat Anti-Human IgG H&L (HRP) (abcam, ab6858) diluted at 1:5000 was added, incubated at 37°C for 1 h, and then subjected to TMB color development. The OD value was determined at 450 nm.\n(§3) Blocking Experiment: The experimental steps were the same as the above blocking experiment."}, "CHOK1": {"tested_on": "CHOK1", "assay": "Cell killing activity", "assay_type": "cell-based"}, "[3]": {"tested_on": "chimeric antibody No. 64 (VH SEQ ID NO: 8, VL SEQ ID NO: 12)", "assay": "Blocking experiment (ELISA, OVA-MMAF coated)", "assay_type": "binding, mouse", "details": "MMAE+antibody; OVA-MMAF coated 200 ng/mL; antibody 100 ng/mL", "procedure": "as §2"}, "[4]": {"tested_on": "chimeric antibody No. 62 (VH SEQ ID NO: 1, VL SEQ ID NO: 5)", "assay": "Blocking experiment (ELISA, OVA-MMAF coated)", "assay_type": "binding, mouse", "details": "MMAE+antibody; OVA-MMAF coated 200 ng/mL; antibody 100 ng/mL", "procedure": "as §2"}, "[5]": {"target": "humanized antibody ABC3320 (Heavy chain: SEQ ID NO: 163; Light chain: SEQ ID NO: 164)", "assay": "Biacore determination, binding affinity with free MMAE", "details": "antibody immobilized with ProA probe; free MMAE 50-1.85 nM", "procedure": "as §1"}, "[6]": {"tested_on": "chimeric antibody No. 133 (VH SEQ ID NO: 46, VL SEQ ID NO: 49)", "assay": "Blocking experiment (ELISA, OVA-MMAF coated)", "assay_type": "binding, mouse", "details": "MMAE+antibody; OVA-MMAF coated 200 ng/mL; antibody 100 ng/mL", "procedure": "as §2, §3"}, "[7]": {"tested_on": "chimeric antibody No. J4 (VH SEQ ID NO: 21, VL SEQ ID NO: 25)", "assay": "Blocking experiment (ELISA, OVA-MMAF coated)", "assay_type": "binding, mouse", "details": "MMAE+antibody; OVA-MMAF coated 200 ng/mL; antibody 100 ng/mL", "procedure": "as §2, §3"}, "[8]": {"tested_on": "chimeric antibody No. 132 (VH SEQ ID NO: 39, VL SEQ ID NO: 43)", "assay": "Blocking experiment (ELISA, OVA-MMAF coated)", "assay_type": "binding, mouse", "details": "MMAE+antibody; OVA-MMAF coated 200 ng/mL; antibody 100 ng/mL", "procedure": "as §2, §3"}, "[9]": {"tested_on": "chimeric antibody No. 92 (VH SEQ ID NO: 28, VL SEQ ID NO: 32)", "assay": "Blocking experiment (ELISA, OVA-MMAF coated)", "assay_type": "binding, mouse", "details": "MMAE+antibody; OVA-MMAF coated 200 ng/mL; antibody 100 ng/mL", "procedure": "as §2, §3"}, "[10]": {"tested_on": "chimeric antibody No. 93 (VH SEQ ID NO: 35, VL SEQ ID NO: 38)", "assay": "Blocking experiment (ELISA, OVA-MMAF coated)", "assay_type": "binding, mouse", "details": "MMAE+antibody; OVA-MMAF coated 200 ng/mL; antibody 100 ng/mL", "procedure": "as §2, §3"}},
  "note": "Square brackets hold non-standard residues; d marks the D form. Peptide text beside a SMILES is read from it. * marks the point of attachment. Dolaproine = CO[C@@H]([C@@H]1CCCN1)[C@@H](C)C(=O)O; Dil = CC[C@H](C)[C@H](NC)[C@@H](CC(=O)O)OC; X1 = C[C@@H](N*)[C@@H](O)c1ccccc1; NMeV = CN[C@H](C(=O)O)C(C)C",
  "data": [
    {"smiles": "CC[C@H](C)[C@@H]([C@@H](CC(=O)N1CCC[C@H]1[C@H](OC)[C@@H](C)C(=O)N[C@H](C)[C@@H](O)c1ccccc1)OC)N(C)C(=O)[C@@H](NC(=O)[C@@H](NC)C(C)C)C(C)C", "note": "[MMAE, monomethyl auristatin E] (H-[NMeV]V[Dil][Dolaproine]-X1)", "values": [
      {"measurement": "MIR (%)", "setting": "HCC1954", "result": 60.95, "unit": "%"},
      {"measurement": "IC50", "setting": "HCC1954; Homo sapiens", "result": 0.31, "unit": "nM"},
      {"measurement": "Kd", "setting": "chimeric antibody No. 1", "result": 1.78, "unit": "nM"},
      {"measurement": "ka", "setting": "chimeric antibody No. 1", "result": 53500, "unit": "M⁻¹ s⁻¹"},
      {"measurement": "kd", "setting": "chimeric antibody No. 1", "result": "9.52e-05", "unit": "s⁻¹"},
      {"measurement": "Kd", "setting": "chimeric antibody No. 69", "result": 2.14, "unit": "nM"},
      {"measurement": "ka", "setting": "chimeric antibody No. 69", "result": 70200, "unit": "M⁻¹ s⁻¹"},
      {"measurement": "kd", "setting": "chimeric antibody No. 69", "result": 0.00015, "unit": "s⁻¹"},
      {"measurement": "Kd", "setting": "chimeric antibody No. 93", "result": 2.81, "unit": "nM"},
      {"measurement": "ka", "setting": "chimeric antibody No. 93", "result": 85700, "unit": "M⁻¹ s⁻¹"},
      {"measurement": "kd", "setting": "chimeric antibody No. 93", "result": 0.000241, "unit": "s⁻¹"},
      {"measurement": "Kd", "setting": "chimeric antibody No. 44", "result": 1.78, "unit": "nM"},
      {"measurement": "ka", "setting": "chimeric antibody No. 44", "result": 326000, "unit": "M⁻¹ s⁻¹"},
      {"measurement": "kd", "setting": "chimeric antibody No. 44", "result": 0.00058, "unit": "s⁻¹"},
      {"measurement": "Kd", "setting": "[1]", "result": 0.741, "unit": "nM"},
      {"measurement": "ka", "setting": "[1]", "result": 105000, "unit": "M⁻¹ s⁻¹"},
      {"measurement": "kd", "setting": "[1]", "result": "7.78e-05", "unit": "s⁻¹"},
      {"measurement": "Kd", "setting": "chimeric antibody No. 92", "result": 2.66, "unit": "nM"},
      {"measurement": "ka", "setting": "chimeric antibody No. 92", "result": 67300, "unit": "M⁻¹ s⁻¹"},
      {"measurement": "kd", "setting": "chimeric antibody No. 92", "result": 0.000179, "unit": "s⁻¹"},
      {"measurement": "Kd", "setting": "chimeric antibody No. 89", "result": 2.11, "unit": "nM"},
      {"measurement": "ka", "setting": "chimeric antibody No. 89", "result": 61600, "unit": "M⁻¹ s⁻¹"},
      {"measurement": "kd", "setting": "chimeric antibody No. 89", "result": 0.00013, "unit": "s⁻¹"},
      {"measurement": "Kd", "setting": "chimeric antibody No. 74", "result": 2.14, "unit": "nM"},
      {"measurement": "ka", "setting": "chimeric antibody No. 74", "result": 84400, "unit": "M⁻¹ s⁻¹"},
      {"measurement": "kd", "setting": "chimeric antibody No. 74", "result": 0.00018, "unit": "s⁻¹"},
      {"measurement": "MIR (%)", "setting": "OVCAR3", "result": 3.69, "unit": "%"},
      {"measurement": "IC50", "setting": "OVCAR3; Homo sapiens, OVCAR-3", "result": 0.31, "unit": "nM"},
      {"measurement": "IC50", "setting": "[2]", "result": 1.37, "unit": "nM"},
      {"measurement": "MIR (%)", "setting": "CHOK1", "result": 83.94, "unit": "%"},
      {"measurement": "IC50", "setting": "CHOK1; Cricetulus griseus, CHO-K1", "result": 34.9, "unit": "nM"},
      {"measurement": "IC50", "setting": "[3]", "result": 4.76, "unit": "nM"},
      {"measurement": "IC50", "setting": "[4]", "result": 1.43, "unit": "nM"},
      {"measurement": "Kd", "setting": "[5]", "result": 0.318, "unit": "nM"},
      {"measurement": "ka", "setting": "[5]", "result": 100000, "unit": "M⁻¹ s⁻¹"},
      {"measurement": "kd", "setting": "[5]", "result": "3.18e-05", "unit": "s⁻¹"},
      {"measurement": "IC50", "setting": "[6]", "result": 1.59, "unit": "nM"},
      {"measurement": "IC50", "setting": "[7]", "result": 1.89, "unit": "nM"},
      {"measurement": "IC50", "setting": "[8]", "result": 1.32, "unit": "nM"},
      {"measurement": "IC50", "setting": "[9]", "result": 83.8, "unit": "nM"},
      {"measurement": "IC50", "setting": "[10]", "result": 54.7, "unit": "nM"}
    ]}
  ]
}
